Reference: US6906094B2, “1,2,4-tribsubstituted benzenes as inhibitors of 15-lipoxygenase” (Warner-Lambert Company, priority 2000, dated 2005)

What was measured:
[1] = target: T1, human 15-LO (Homo sapiens, UniProt P16050); assay: Human Lysate 15-LO Assay (HUM15LO); format: biochemical; details: recombinant human 15-LO, 174 μM linoleic acid, 15 minutes at 4° C., 13-HODE quantitated
T1 construct: made in house; host or cells: Sf9 insect cells (baculovirus, Bac-to-Bac)
T1 sequence (P16050 1-662): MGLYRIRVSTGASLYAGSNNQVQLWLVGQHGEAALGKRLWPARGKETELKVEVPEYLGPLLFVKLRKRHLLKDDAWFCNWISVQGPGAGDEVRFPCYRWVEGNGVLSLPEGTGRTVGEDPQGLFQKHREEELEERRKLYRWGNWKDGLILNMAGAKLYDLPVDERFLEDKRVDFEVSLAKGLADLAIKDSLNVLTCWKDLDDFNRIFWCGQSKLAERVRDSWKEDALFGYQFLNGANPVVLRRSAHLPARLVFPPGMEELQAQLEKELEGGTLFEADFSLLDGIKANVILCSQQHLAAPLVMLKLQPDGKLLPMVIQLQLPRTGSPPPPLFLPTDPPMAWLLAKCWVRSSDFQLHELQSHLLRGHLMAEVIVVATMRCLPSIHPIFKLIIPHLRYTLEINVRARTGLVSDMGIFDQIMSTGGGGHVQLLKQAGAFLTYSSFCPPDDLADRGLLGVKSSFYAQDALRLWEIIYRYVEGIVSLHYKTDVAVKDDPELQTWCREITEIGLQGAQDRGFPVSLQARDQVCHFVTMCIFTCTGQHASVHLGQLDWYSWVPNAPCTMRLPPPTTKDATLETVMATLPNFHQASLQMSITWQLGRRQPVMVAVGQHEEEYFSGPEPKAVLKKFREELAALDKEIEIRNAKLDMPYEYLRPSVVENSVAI
Procedure, shortened: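 Baculovirus-expressed recombinant enzyme incubated with compound and 174 μM linoleic acid in PBS with 0.2% sodium cholate, 15 min at 4° C. 13-HODE product quantitated against an authentic standard curve. Percent inhibition derived relative to a compound-free control reaction.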

[2] = target: T2, rabbit reticulocyte 15-LO (Oryctolagus cuniculus, UniProt P12530); assay: Rabbit Reticulocyte 15-LO Assay (H15LO); format: biochemical; details: 2 U rabbit reticulocyte 15-LO, 174 μM linoleic acid, 15 minutes at 4° C., 13-HODE quantitated
T2 construct: 15-LO is obtained from phenylhydrazine-treated rabbits and purified according to the method of Rapoport; from tissue; host or cells: reticulocytes of phenylhydrazine-treated rabbits
T2 sequence (P12530 1-663): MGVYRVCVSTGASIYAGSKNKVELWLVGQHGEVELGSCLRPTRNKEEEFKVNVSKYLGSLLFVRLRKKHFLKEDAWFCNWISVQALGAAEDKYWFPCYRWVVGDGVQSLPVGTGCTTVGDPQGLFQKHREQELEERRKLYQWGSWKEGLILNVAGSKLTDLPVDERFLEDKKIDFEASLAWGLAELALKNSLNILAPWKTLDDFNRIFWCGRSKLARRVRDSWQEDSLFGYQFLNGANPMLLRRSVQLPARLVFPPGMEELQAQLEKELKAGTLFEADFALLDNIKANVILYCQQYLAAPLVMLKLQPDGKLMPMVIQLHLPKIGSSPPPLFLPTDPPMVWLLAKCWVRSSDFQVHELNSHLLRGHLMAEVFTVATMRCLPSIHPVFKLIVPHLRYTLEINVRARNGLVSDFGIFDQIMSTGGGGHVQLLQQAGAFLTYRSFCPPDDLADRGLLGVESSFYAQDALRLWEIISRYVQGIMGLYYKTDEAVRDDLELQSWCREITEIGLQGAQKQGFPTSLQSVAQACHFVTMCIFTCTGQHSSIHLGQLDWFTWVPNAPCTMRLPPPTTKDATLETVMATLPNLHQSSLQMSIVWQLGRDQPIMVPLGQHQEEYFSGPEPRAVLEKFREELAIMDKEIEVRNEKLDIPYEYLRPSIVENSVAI
Procedure, shortened: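 Rabbit reticulocyte 15-LO purified from phenylhydrazine-treated rabbits; 2 U enzyme incubated with 174 μM linoleic acid and test compound for 15 min at 4° C in PBS with 0.2% sodium cholate. Reaction stopped with mobile phase and triethyl phosphite; 13-HODE product quantitated by peak area against an authentic 13-HODE standard curve.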

Row | melting point [°C] | IC50 [1] [nM] | IC50 [2] [nM] | SMILES
1 | 173 to 176 | 76 | 19 | COc1ccc(C(=O)Nc2ccc(F)c(F)c2)cc1NS(=O)(=O)NC(=O)OCc1ccccc1 [Example 42, Carbamic Acid, [[[5-[[(3,4-difluorophenyl)amino]carbonyl]-2-methoxyphenyl]amino]sulfonyl]-, Phenylmethyl Ester]
2 | 149 to 152 | 16 | 6 | COc1ccc(-c2cc3cc(F)c(F)cc3[nH]2)cc1NS(=O)(=O)NC(=O)OC/C=C/c1ccccc1 [Example 32, Carbamic Acid, [[[5-(5,6-difluoro-IH-indol-2-yl)-2-methoxyphenyl]amino]sulfonyl]-(2E)-3-phenyl-2-propenyl ester]
